SMILES strings stand for the structures. Positions of bridges follow the written chain, without caps; N, C: chain ends. Residues, ends and D or L forms follow the SMILES beside them.

The nature of this assay: Binding affinity against Opioid receptor delta 1 in guinea pig brain homogenate using [3H]- DPDPE as radioligand.
`CC(C)C[C@H](NC(=O)[C@H](Cc1ccccc1)NC(=O)CNC(=O)CNC(=O)[C@@H](N)Cc1ccc(O)cc1)C(=O)N[C@@H](CCCNC(=N)N)C(=O)N[C@@H](CCCNC(=N)N)C(=O)N[C@@H]1CSSC[C@H](C(N)=O)NC(=O)[C@H](CC(C)C)NC(=O)[C@H](CCCCN)NC(=O)[C@@H]2CCCN2C(=O)[C@H](CCCNC(=N)N)NC1=O` gave a half-maximal inhibitory concentration (IC50) of 14 nM. This counts as double-digit nanomolar. In turn, `CC[C@H](C)[C@H](NC(=O)[C@H](CCCNC(=N)N)NC(=O)[C@H](CCCNC(=N)N)NC(=O)[C@H](CC(C)C)NC(=O)[C@H](Cc1ccccc1)NC(=O)CNC(=O)CNC(=O)[C@@H](N)Cc1ccc(O)cc1)C(=O)N[C@@H](CCCNC(=N)N)C(=O)N1CCC[C@H]1C(=O)N[C@@H](CCCCN)C(=O)N[C@@H](CC(C)C)C(=O)N[C@@H](CCCCN)C(N)=O` had a half-maximal inhibitory concentration (IC50) of 4.1 nM. In turn, `C[C@H]1NC(=O)[C@H](CCCNC(=N)N)NC(=O)[C@H](CCCNC(=N)N)NC(=O)[C@@H](NC(=O)[C@H](Cc2ccccc2)NC(=O)CNC(=O)CNC(=O)[C@@H](N)Cc2ccc(O)cc2)CSSC[C@@H](C(N)=O)NC(=O)[C@@H]2CCCN2C(=O)[C@H](CCCNC(=N)N)NC1=O` yielded a half-maximal inhibitory concentration (IC50) of 19 nM. The value for `CC(C)C[C@@H]1NC(=O)[C@H](CCCCN)NC(=O)[C@@H]2CCCN2C(=O)[C@H](CCCNC(=N)N)NC(=O)[C@@H](NC(=O)[C@H](CCCNC(=N)N)NC(=O)[C@H](CCCNC(=N)N)NC(=O)[C@H](CC(C)C)NC(=O)[C@H](Cc2ccccc2)NC(=O)CNC(=O)CNC(=O)[C@@H](N)Cc2ccc(O)cc2)CSSC[C@@H](C(N)=O)NC1=O` was 4 nM. The value for `CC[C@H](C)[C@@H]1NC(=O)[C@H](CCCNC(=N)N)NC(=O)[C@H](CCCNC(=N)N)NC(=O)[C@@H](NC(=O)[C@H](Cc2ccccc2)NC(=O)CNC(=O)CNC(=O)[C@@H](N)Cc2ccc(O)cc2)CSSC[C@@H](C(N)=O)NC(=O)[C@@H]2CCCN2C(=O)[C@H](CCCNC(=N)N)NC1=O` (H-YGGFCRRIRPC-NH2; disulfide 5-11) was 1.6 nM. With `CC(C)C[C@@H]1NC(=O)[C@H](CCCCN)NC(=O)[C@@H]2CCCN2C(=O)[C@H](CCCNC(=N)N)NC(=O)[C@H](NC(=O)[C@H](CCCNC(=N)N)NC(=O)[C@H](CCCNC(=N)N)NC(=O)[C@H](CC(C)C)NC(=O)[C@H](Cc2ccccc2)NC(=O)CNC(=O)CNC(=O)[C@@H](N)Cc2ccc(O)cc2)CSSC[C@@H](C(N)=O)NC1=O`, the IC50 stood at 104 nM.

For the molecule `CC[C@H](C)[C@H](NC(=O)[C@H](CCCNC(=N)N)NC(=O)[C@H](CCCNC(=N)N)NC(=O)[C@H](CC(C)C)NC(=O)[C@H](Cc1ccccc1)NC(=O)CNC(=O)CNC(=O)[C@@H](N)Cc1ccc(O)cc1)C(=O)N[C@@H](CCCNC(=N)N)C(=O)N1CCC[C@H]1C(=O)N[C@@H](CCCCN)C(N)=O`, the IC50 was 7 nM.
